We go through 4 compounds from patent US20220098191A1 (priority 2019, published 2022).

Data set [1] concerns SW48 (Gastric). Kind of data set: MTT in vitro cytotoxicity, 72 hour incubation. It counts as cell-based. The settings on record: Homo sapiens, MTT assay, SW48 cells. As to the method:
(§1) The in vitro cytotoxicity of a selection of compounds was determined in a panel of cell lines using the standard MTT assay for a 72 hour incubation period (Table 1).
(§2) Tumor cell lines were maintained in RPMI1640 medium supplemented with 10% heat-inactivated fetal bovine serum, 2 mM L-glutamine and 1 mM sodium pyruvate. 1800 cells per well were seeded in a volume of 180 μl in a 96-well flat bottom polystyrene plate. The cells were allowed to adhere overnight at 37° C. in a CO2 incubator. Ligands were initially formulated in DMSO, and stocks stored at −80° C. They were then further formulated at lox concentration in RPMI1640 medium. 20 μl of diluted samples were added into each treatment well. On each plate, blank wells with no cells, and untreated wells containing cells, were included. Plates were then cultured at 37° C. in a CO2 incubator for 72 hrs. Cytotoxicity was evaluated using a tetrazolium salt-based assay, the MTT assay. After 72 hours, the supernatant was removed from each well and 200 μl of a sterile filtered 500 μg/ml MTT solution in water added to each well. The plates were then incubated at 37° C. in a CO2 incubator for 4 hrs. The supernatant was then removed and the formazan crystals formed solubilized by adding 150 μl of DMSO to each well. The plate was then read on a plate reader at 540 nm, and percentage cell survival calculated as follows: ((mean absorbance treated wells at concentration×−mean absorbance blank wells)÷(mean absorbance untreated wells at concentration×−mean absorbance blank wells))×100. Data were plotted as concentration in nM vs. % cell survival in Microsoft Excel, and IC50 values (concentration where cell survival is reduced by a half) were determined from the graph.
A general note: Formazan colour is commonly taken as a measure of viable cells.

Data set [2] deals with SW620 (Gastric). Kind of data set: MTT in vitro cytotoxicity, 72 hour incubation. It counts as cell-based. Particulars: Homo sapiens, SW-620, MTT assay, SW620 cells. As to the method:
as §1, §2

The subject of data set [3] is LIM1215 (Gastric). Briefly: MTT in vitro cytotoxicity, 72 hour incubation. It counts as cell-based. Particulars: MTT assay, LIM1215 cells. How it is done:
as §1, §2

The nature of data set [4]: Hydrophobicity investigation of free payloads by UPLC (hydrophobicity model). It counts as physicochemical. The settings on record: single runs 1-3 (triplicate), 0.1% TFA water/acetonitrile gradient. As to the method: Both mobile phases were filtered through 0.22 μm filters and degassed by sonication under argon. Caffeine (Merck, UPLC grade) was employed a standard. Blank solvent samples (i.e., DMSO) were used during sample runs to confirm lack of carryover between injections and to monitor column performance.
UPLC-MS analysis was performed on a Waters Acquity H-Class Ultra-Performance Liquid Chromatography (UPLC) System equipped with an Acquity UPLC BEH, […] 50×2.10 mm (Waters, UK) column and a photodiode array detector […], using Waters MassLynx software. The gradient system used for LC analysis consisted of 0.1% trifluoroacetic acid (TFA) in water as Solvent A, and 0.1% trifluoroacetic acid (TFA) in acetonitrile as Solvent B. TFA was purchased from Merck (UK), and diluted to the required concentration with UPLC grade water and acetonitrile for Solvent A and Solvent B, respectively. TFA was added to ensure acidic conditions throughout the analysis. A flow rate of 0.4 mL/min was used, and the detection wavelength was 254 nm. Mass spectrometry data were collected using a Waters SQ Detector 2 coupled to a Waters Acquity H Class UPLC and a Photo Diode Array Detector (ACQ-PDA). The Waters SQ Detector 2 parameters were set to: Capillary (kV), 3.00; Cone (V), 30; De-solvation Temperature (° C.), 600; Cone flow rate (L/h), 50; De-solvation flow rate (L/h), 600.
Gradient method used: from 95% A/5% B to 20% B over 5 min. Then from 20% B to 60% B over 35 min, followed by from 60% B to 85% B over 10 min. It was further changed from 85% B to 90% B over 5 min and kept for a further 5 min. Finally, from 90% B to 95% B over 2.5 min, and then to 20% B over 2.5 min. 10 μL was split via a zero-dead volume T-piece which passed into the mass spectrometer.
Compounds were provided in powder form and were dissolved in DMSO to achieve 5 mM stock solution. This solution was then diluted to 500 μM with 50% acetonitrile/50% water.
A number of commercially available ADC payloads and internal reference compounds were also incorporated into the analysis, and their structures are presented in Table 3.

Data set [5] concerns RAJI (Lymphoma). Briefly: MTT in vitro cytotoxicity, 72 hour incubation. It counts as cell-based. Particulars: Homo sapiens, MTT assay, RAJI cells. As to the method: as §1, §2
For data set [6], the system named is Jurkat (Leukaemia). Kind of data set: MTT in vitro cytotoxicity, 72 hour incubation. It counts as cell-based. Particulars: Homo sapiens, MTT assay, Jurkat cells. As to the method:
as §1, §2

The subject of data set [7] is JVM2 (Lymphoma). Kind of data set: MTT in vitro cytotoxicity, 72 hour incubation. It counts as cell-based. Particulars: Homo sapiens, JVM-2, MTT assay, JVM2 cells. How it is done:
as §1, §2

Each structure is given as a SMILES string. Where “and” joins values, the source holds several entries; their conditions need not be identical. Identical values can stand only once.

Regarding `CNS(=O)(=O)c1ccc(C2=CCN3C(=O)c4cc(OC)c(OCc5cccc(CC(=O)N6C[C@@H](CCl)c7c6cc(O)c6ccccc76)n5)cc4N=C[C@@H]3C2)cc1` [Compound 35, 4-((S)-3-((6-(2-((S)-1-(Chloromethyl)-5-hydroxy-1,2-dihydro-3H-benzo[e]indol-3-yl)-2-oxoethyl)pyridin-2-yl)methoxy)-2-methoxy-12-oxo-6a,7,10,12-tetrahydrobenzo[e]pyrido[1,2-a][1,4]diazepin-8-yl)-N-methylbenzenesulfonamide], the IC50 came out at 3.15 nM in data set [1], 2.12 nM in data set [2] and 4.38 nM in data set [3].
`CNS(=O)(=O)c1ccc(C2=CCN3C(=O)c4cc(OC)c(OCCCCCC(=O)N5C[C@@H](CCl)c6c5cc(O)c5ccccc65)cc4N=C[C@@H]3C2)cc1` [Compound 72, 4-((S)-3-((6-((S)-1-(Chloromethyl)-5-hydroxy-1,2-dihydro-3H-benzo[e]indol-3-yl)-6-oxohexyl)oxy)-2-methoxy-12-oxo-6a,7,10,12-tetrahydrobenzo[e]pyrido[1,2-a][1,4]diazepin-8-yl)-N-methylbenzenesulfonamide]: the “Retention Time (min) seco form” value in data set [4] was 24.02 min and 24.04 min. Further, the “Retention Time (min) spiro form” value in data set [4] was 17.11 min and 17.15 min. Also, the IC50 was determined as 0.0019 nM in data set [5]; 0.29 nM in data set [1]; 0.0015 nM in data set [6]; 0.0016 nM in data set [7]; 0.21 nM in data set [2]; 0.32 nM in data set [3].
Turning to `CNS(=O)(=O)c1ccc(C2=CCN3C(=O)c4cc(OC)c(OCc5cccc(CC(=O)N6C[C@@H](CCl)c7c6cc(O)c6ccccc76)c5)cc4N=C[C@@H]3C2)cc1` [Compound 31, 4-((S)-3-((3-(2-((S)-1-(Chloromethyl)-5-hydroxy-1,2-dihydro-3H-benzo[e]indol-3-yl)-2-oxoethyl)benzyl)oxy)-2-methoxy-12-oxo-6a,7,10,12-tetrahydrobenzo[e]pyrido[1,2-a][1,4]diazepin-8-yl)-N-methylbenzenesulfonamide], the IC50 in data set [1] amounted to 1.3 nM; in data set [2] it was 0.35 nM; in data set [3], 2.7 nM.
For `CNS(=O)(=O)c1ccc(C2=CCN3C(=O)c4cc(OC)c(OC[C@H](O)CC(=O)N5C[C@@H](CCl)c6c5cc(O)c5ccccc65)cc4N=C[C@@H]3C2)cc1` [Compound 92, 4-((S)-3-((R)-4-((S)-1-(Chloromethyl)-5-hydroxy-1,2-dihydro-3H-benzo[e]indol-3-yl)-2-hydroxy-4-oxobutoxy)-2-methoxy-12-oxo-6a,7,10,12-tetrahydrobenzo[e]pyrido[1,2-a][1,4]diazepin-8-yl)-N-methylbenzenesulfonamide], in data set [4], the “Retention Time (min) seco form” value was 18.82 min and 18.84 min. The “Retention Time (min) spiro form” value in data set [4] is 12.16 min and 12.18 min. The IC50 worked out at 0.41 nM in data set [5], 0.55 nM in data set [6] and 0.12 nM in data set [7].

The IC50 is the concentration that inhibits the measured activity by half. A higher IC50 goes with a need for much substance.
